System: A431 human epidermoid cells
Test: Oxidative damage protection assay (Example 3), compound with 1 mM H2O2, alamar blue readout
Format: cell-based
Experimental: The cells were trypsinized with 0.25% trypsin EDTA solution for 2-3 minutes until the cells were dislodged. The cells were sub-cultured in a ratio of 1:3 for further growth and scale-up for the assay. The cells were trypsinized and counted to a density of 5,000 or 15,000 cells and seeded in 100 μL media per well, in 96-well clear bottom black plates. The outer wells at the periphery of the plates were left unneeded and were instead filled with media to reduce the edge effect during incubation. […] Each concentration was tested in 6 replicates.
Detection method used: Cell Titer blue (Promega, Cat# G8080).

**Q.** `CC(=O)OC[C@H]1O[C@@H](N2C=CCC(C(N)=O)=C2)[C@H](OC(C)=O)[C@@H]1OC(C)=O` [NRH triacetate (2), 1-(2′,3′,5′-triacetyl-beta-D-ribofuranosyl)-1,4-dihydronicotinamide] was tested. Which “mitigating oxidative damage to human skin cells” value (Trial A, FIG. 1, 1 mM H2O2 for 20 hours, all doses (0.1, 0.3, 1 mM)) did it give?
**A.** The value was “capable of mitigating oxidative damage”.

**Q.** What about the “cytoprotection compared to positive controls” value (Trial A, FIG. 1, 1 mM H2O2 for 20 hours, dose-dependent, highest over 0.1-1 mM) of the same compound?
**A.** Its value is “up to 88%”.

**Q.** What about the “cytoprotection compared to positive controls” value (Trial B, FIG. 2, 1 mM H2O2, compound at 1 mM) of the same compound?
**A.** Its value is 94%.

**Q.** What about the “protection against oxidative damage in skin cells” value (composite of Trials A and B, FIG. 3) of the same compound?
**A.** Its value is “can protect against oxidative damage”.

From US10280190B2, “Nicotinic acid riboside or nicotinamide riboside compositions, reduced derivatives thereof, and the use thereof to enhance skin permeation in treating skin conditions” (ChromaDex Inc., priority 2015, dated 2019)
